Measurements: ChEMBL document CHEMBL6115030, “Systematic All-Hydrocarbon Stapling Analysis for Cecropin A Generates a Potent and Stable Antimicrobial Peptide” (J Med Chem, 2025)
Converted amounts (≈) assume the structure as drawn. The source made the active and inactive calls. The rule behind the calls is not given here. Bridge positions count the residues as written; N and C are the ends. Square brackets hold non-standard residues; d marks the D form. Peptide text beside a SMILES is read from it. S5 = C=CCCC[C@](C)(N)C(=O)O

Tests used:
Klebsiella pneumoniae [1] = experiment: Antibacterial activity against Klebsiella pneumoniae ATCC 13883 assessed as inhibition of bacterial growth measured after 24 hrs by broth microdilution method; assay type: functional
[2] = Hemolytic activity in human RBC assessed as hemolysis incubated for 1 hr by microplate reader; assay type: toxicity, cell-based, Erythrocyte; settings: erythrocyte, 1 h
Klebsiella pneumoniae [3] = experiment: Antibacterial activity against Carbapenem-resistant Klebsiella pneumoniae assessed as inhibition of bacterial growth measured after 24 hrs by broth microdilution method; assay type: functional
Pseudomonas aeruginosa = experiment: Antibacterial activity against Pandrug-resistant Pseudomonas aeruginosa assessed as inhibition of bacterial growth measured after 24 hrs by broth microdilution method; assay type: functional
Salmonella typhimurium = experiment: Antibacterial activity against Salmonella typhimurium assessed as inhibition of bacterial growth measured after 24 hrs by broth microdilution method; assay type: functional, Salmonella enterica subsp. enterica serovar Typhimurium; settings: Salmonella enterica
Shigella flexneri = experiment: Antibacterial activity against Shigella flexneri 301 assessed as inhibition of bacterial growth measured after 24 hrs by broth microdilution method; assay type: functional
[4] = Stability of the compound in human serum assessed as remaining peptide by RP-HPLC analysis; assay type: ADME, cell-free
NIH3T3 = experiment: Cytotoxicity against mouse NIH3T3 cells assessed as cell viability measured upto 50 uM incubated for 24 hrs by CCK-8 assay; assay type: toxicity, cell-based; settings: nih3t3, 24 h
Escherichia coli [5] = experiment: Antibacterial activity against Escherichia coli assessed as reduction in CFU at 5 uM measured upto 60 mins by Time-killing assay; assay type: functional, organism-based
Cell membrane [6] = experiment: Induction of Outer membrane damage in Escherichia coli assessed as increase in NPN intensity at 5 uM measured after 24 hrs incubation by microplate reader based outer membrane permeability assay; assay type: subcellular
Cell membrane [7] = experiment: Induction of Inner membrane damage in Escherichia coli assessed as increase in […] ONPG intensity at 5 uM measured after 24 hrs incubation by microplate reader based inner membrane permeability assay; assay type: subcellular
Escherichia coli [8] = experiment: Induction of multiple envelope stress pathway related pathways in Escherichia coli assessed as change in WcaB gene expression at 12.5 uM measured after 2 hrs incubation by PCR analysis; assay type: functional, organism-based
Escherichia coli [9] = experiment: Induction of multiple envelope stress pathway related pathways in Escherichia coli assessed as change in WcaC gene expression at 12.5 uM measured after 2 hrs incubation by PCR analysis; assay type: functional, organism-based
Escherichia coli [10] = experiment: Induction of multiple envelope stress pathway related pathways in Escherichia coli assessed as change in FimA gene expression at 12.5 uM measured after 2 hrs incubation by PCR analysis; assay type: functional, organism-based
Escherichia coli [11] = experiment: Induction of outer membrane synthesis related pathways in Escherichia coli assessed as change in OmpG gene expression at 12.5 uM measured after 2 hrs incubation by PCR analysis; assay type: functional, organism-based
Escherichia coli [12] = experiment: Induction of outer membrane synthesis related pathways in Escherichia coli assessed as change in OmpC gene expression at 12.5 uM measured after 2 hrs incubation by PCR analysis; assay type: functional, organism-based
Escherichia coli [13] = experiment: Induction of outer membrane synthesis related pathways in Escherichia coli assessed as change in OmpX gene expression at 12.5 uM measured after 2 hrs incubation by PCR analysis; assay type: functional, organism-based
Escherichia coli [14] = experiment: Induction of outer membrane synthesis related pathways in Escherichia coli assessed as change in OmpT gene expression at 12.5 uM measured after 2 hrs incubation by PCR analysis; assay type: functional, organism-based
Escherichia coli [15] = experiment: Induction of assembly related pathways in Escherichia coli assessed as change in BamA gene expression at 12.5 uM measured after 2 hrs incubation by PCR analysis; assay type: functional, organism-based
Escherichia coli [16] = experiment: Induction of assembly related pathways in Escherichia coli assessed as change in BamD gene expression at 12.5 uM measured after 2 hrs incubation by PCR analysis; assay type: functional, organism-based
Escherichia coli [17] = experiment: Induction of assembly related pathways in Escherichia coli assessed as change in BamB gene expression at 12.5 uM measured after 2 hrs incubation by PCR analysis; assay type: functional, organism-based
Escherichia coli [18] = experiment: Induction of LPS transport pathway related genes in Escherichia coli assessed as change in LptA gene expression at 12.5 uM measured after 2 hrs incubation by PCR analysis; assay type: functional, organism-based
Escherichia coli [19] = experiment: Induction of LPS transport pathway related genes in Escherichia coli assessed as change in LptB gene expression at 12.5 uM measured after 2 hrs incubation by PCR analysis; assay type: functional, organism-based
Escherichia coli [20] = experiment: Induction of LPS transport pathway related genes in Escherichia coli assessed as change in LptD gene expression at 12.5 uM measured after 2 hrs incubation by PCR analysis; assay type: functional, organism-based
Escherichia coli [21] = experiment: Induction of LPS transport pathway related genes in Escherichia coli assessed as change in LptE gene expression at 12.5 uM measured after 2 hrs incubation by PCR analysis; assay type: functional, organism-based
[22] = Toxicity in C57BL/6 mouse assessed as increase in body weight at 25 mg/kg, ip measured during 14 days of study; assay type: organism-based; settings: in vivo, 336 h, time 14 day
[23] = Toxicity in C57BL/6 mouse assessed as death at 50 mg/kg, ip measured on day 4; assay type: organism-based; settings: in vivo, 96 h, time 4 day
[24] = Toxicity in C57BL/6 female mouse assessed as apparent inflammatory exudates ([…], neutrophiles, macrophages) in lungs at 25 mg/kg, ip measured during 14 days of study by H and E staining based analysis; assay type: organism-based; settings: in vivo, 336 h, time 14 day
[25] = Toxicity in C57BL/6 female mouse assessed as juxtaglomerular cells and interstitial fibrous tissues in kidney at 25 mg/kg, ip measured during 14 days of study by H and E staining based analysis; assay type: organism-based; settings: in vivo, 336 h, time 14 day
[26] = Toxicity in C57BL/6 female mouse assessed as haemorrhagic point and blurred white pulp boundary in spleen at 25 mg/kg, ip measured during 14 days of study by H and E staining based analysis; assay type: organism-based; settings: in vivo, 336 h, time 14 day
Escherichia coli [27] = experiment: In vivo antibacterial activity against Escherichia coli intraperitoneally injected into C57BL/6 mouse peritonitis model assessed as mouse survival at 2.5 mg/kg, ip measured after 48 hrs relative to control; assay type: functional
Escherichia coli [28] = experiment: In vivo antibacterial activity against Escherichia coli intraperitoneally injected into C57BL/6 mouse peritonitis model assessed as reduction in bacterial load in blood at 2.5 mg/kg, ip measured after 48 hrs relative to control; assay type: functional, organism-based
Escherichia coli [29] = experiment: In vivo antibacterial activity against Escherichia coli intraperitoneally injected into C57BL/6 mouse peritonitis model assessed as reduction in bacterial load in liver at 2.5 mg/kg, ip measured after 48 hrs relative to control; assay type: functional, organism-based
Escherichia coli [30] = experiment: In vivo antibacterial activity against Escherichia coli intraperitoneally injected into C57BL/6 mouse peritonitis model assessed as reduction in bacterial load in lung at 2.5 mg/kg, ip measured after 48 hrs relative to control; assay type: functional, organism-based
Mus musculus [31] = experiment: In vivo anti-inflammatory efficacy in Escherichia coli intraperitoneally injected into C57BL/6 mouse peritonitis model assessed as reduction in IL-1beta level in blood at 2.5 mg/kg, ip measured after 48 hrs by ELISA; assay type: functional, organism-based
Mus musculus [32] = experiment: In vivo anti-inflammatory efficacy in Escherichia coli intraperitoneally injected into C57BL/6 mouse peritonitis model assessed as reduction in IL-6 level in blood at 2.5 mg/kg, ip measured after 48 hrs by ELISA; assay type: functional, organism-based
Mus musculus [33] = experiment: In vivo anti-inflammatory efficacy in Escherichia coli intraperitoneally injected into C57BL/6 mouse peritonitis model assessed as reduction in TNF-alpha level in blood at 2.5 mg/kg, ip measured after 48 hrs by ELISA; assay type: functional, organism-based

CC[C@H](C)[C@H](NC(=O)CNC(=O)[C@H](CC(=O)O)NC(=O)[C@H](CCCNC(=N)N)NC(=O)[C@@H](NC(=O)[C@H](CC(N)=O)NC(=O)[C@H](CCC(N)=O)NC(=O)CNC(=O)[C@@H](NC(=O)[C@H](CCCCN)NC(=O)[C@H](CCC(=O)O)NC(=O)[C@@H](NC(=O)[C@H](CCCCN)NC(=O)[C@H](CCCCN)NC(=O)[C@H](Cc1ccccc1)NC(=O)[C@H](CC(C)C)NC(=O)[C@H](CCCCN)NC(=O)[C@H](Cc1c[nH]c2ccccc12)NC(=O)[C@H](CCCCN)NC(C)=O)[C@@H](C)CC)C(C)C)[C@@H](C)CC)C(=O)N[C@H](C(=O)N[C@@H](CCCCN)C(=O)N[C@@H](C)C(=O)NCC(=O)N1CCC[C@H]1C(=O)N[C@@H](C)C(=O)N[C@H](C(=O)N[C@@H](C)C(=O)N[C@H](C(=O)N[C@H](C(=O)NCC(=O)N[C@@H](CCC(N)=O)C(=O)N[C@@H](C)C(=O)N[C@@]1(C)CCC/C=C\CCC[C@@](C)(C(N)=O)NC(=O)[C@H](C)NC(=O)[C@H]([C@@H](C)CC)NC(=O)[C@H](CCC(N)=O)NC1=O)C(C)C)C(C)C)C(C)C)[C@@H](C)CC (Ac-KWKLFKKIEKVGQNIRDGIIKAGPAVAVVGQA[S5]QIA[S5]-NH2; staple (Z) 33-37)
MIC (Klebsiella pneumoniae [1]): 3.13 µM (≈ 12.7 µg/mL)
Activity [2]: Non-toxic
MIC (Klebsiella pneumoniae [3]): 6.25 µM (≈ 25.4 µg/mL)
MIC (Pseudomonas aeruginosa): 12.5 µM (≈ 50.8 µg/mL)
MIC (Salmonella typhimurium): 3.13 µM (≈ 12.7 µg/mL)
MIC (Shigella flexneri): 1.56 µM (≈ 6.34 µg/mL)
Stability [4]: > 50%
Activity (NIH3T3): Non-toxic
Activity (Escherichia coli [5]): Active
Activity (Cell membrane [6]): Active
Activity (Cell membrane [7]): Active
Activity (Escherichia coli [8]): Active
Activity (Escherichia coli [9]): Active
Activity (Escherichia coli [10]): Active
Activity (Escherichia coli [11]): Active
Activity (Escherichia coli [12]): Active
Activity (Escherichia coli [13]): Active
Activity (Escherichia coli [14]): Active
Activity (Escherichia coli [15]): Active
Activity (Escherichia coli [16]): Active
Activity (Escherichia coli [17]): Active
Activity (Escherichia coli [18]): Active
Activity (Escherichia coli [19]): Active
Activity (Escherichia coli [20]): Active
Activity (Escherichia coli [21]): Active
Activity [22]: Toxic
Activity [23]: Toxic
Activity [24]: Non-toxic
Activity [25]: Non-toxic
Activity [26]: Non-toxic
Activity (Escherichia coli [27]): 67%
Activity (Escherichia coli [28]): Active; Compound Showed Enhanced Bacterial Elimination Than Cec-0 And Compound Showed Comparable Bacterial Elimination To Polymyxin B
Activity (Escherichia coli [29]): Active; Compound Showed Enhanced Bacterial Elimination Than Cec-0 And Compound Showed Comparable Bacterial Elimination To Polymyxin B
Activity (Escherichia coli [30]): Active; Compound Showed Enhanced Bacterial Elimination Than Cec-0
Activity (Mus musculus [31]): Active
Activity (Mus musculus [32]): Active
Activity (Mus musculus [33]): Active
